Measured values reported in patent publication US11236087B2, “Highly active pyrazolo-piperidine substituted indole-2-carboxamides active against the hepatitis B virus (HBV)” (AiCuris GmbH & Co. KG, priority 2017, dated 2022).

Columns and labels:
[1] = test system: HBV; test: Determination of HBV DNA from the supernatants of HepAD38 cells (anti-HBV activity); assay type: cell-based, hepatitis B virus; conditions: Hepatitis B virus, 144 h; HBV DNA in HepAD38 supernatant, day 6, qPCR; read-out: Cell Activity (EC50)
Protocol: Determination of HBV DNA from the Supernatants of HepAD38 Cells
The anti-HBV activity was analysed in the stable transfected cell line HepAD38, which has been described to secrete high levels of HBV virion particles (Ladner et al., 1997). In brief, HepAD38 cells were cultured at 37° C. at 5% CO2 and 95% humidity in 200 μl maintenance medium, which was Dulbecco's modified Eagle's medium/Nutrient Mixture F-12 (Gibco, Karlsruhe), 10% fetal bovine serum (PAN Biotech Aidenbach) supplemented with 50 μg/ml penicillin/streptomycin (Gibco, Karlsruhe), 2 mM L-glutamine (PAN Biotech, Aidenbach), 400 μg/ml G418 (AppliChem, Darmstadt) and 0.3 μg/ml tetracycline. Cells were subcultured once a week in a 1:5 ratio, but were usually not passaged more than ten times. For the assay 60,000 cells were seeded in maintenance medium without any tetracycline into each well of a 96-well plate and treated with serial half-log dilutions of test compound. To minimize edge effects the outer 36 wells of the plate were not used but were filled with assay medium. On each assay plate six wells for the virus control (untreated HepAD38 cells) and six wells for the cell control (HepAD38 cells treated with 0.3 μg/ml tetracycline) were allocated, respectively. In addition, one plate set with reference inhibitors like BAY 41-4109, entecavir, and lamivudine instead of screening compounds were prepared in each experiment. In general, experiments were performed thrice in triplicates. At day 6 HBV DNA from 100 μl filtrated cell culture supernatant (AcroPrep Advance 96 Filter Plate, […] Supor membran, PALL GmbH, Dreieich) was automatically purified on the MagNa Pure LC instrument using the MagNA Pure 96 DNA and Viral NA Small Volume Kit (Roche Diagnostics, Mannheim) according to the instructions of the manufacturer. EC50 values were calculated from relative copy numbers of HBV DNA In brief, 5 μl of the 100 μl eluate containing HBV DNA were subjected to PCR LC480 Probes Master Kit (Roche) together with 1 μM antisense primer […], 0.5 μM sense primer […], 0.3 μM hybprobes […]-FL and LC640-[…]-PH (TIBMoBiol, Berlin) to a final volume of 12.5 μl. The PCR was performed on the Light Cycler 480 real time system (Roche Diagnostics, Mannheim) using the following protocol: Pre-incubation for 1 min at 95° C., amplification: 40 cycles×(10 sec at 95° C., 50 sec at 60° C., 1 sec at 70° C.), cooling for 10 sec at 40° C. Viral load was quantitated against known standards using HBV plasmid DNA of pCH-9/3091 (Nassal et al., 1990, Cell 63: 1357-1363) and the LightCycler 480 SW 1.5 software (Roche Diagnostics, Mannheim) and EC50 values were calculated using non-linear regression with GraphPad Prism 6 (GraphPad Software Inc., La Jolla, USA).

[2] = Cell viability assay (AlamarBlue) in HepAD38 cells; conditions: human

SMILES	EC50 [1]	CC50 at 6 days [2]
CN(C(=O)c1n[nH]c2c1CN(C(=O)c1cc3c(Cl)c(F)ccc3[nH]1)CC2)C1(CO)CC1 [Example 239, 5-(4-chloro-5-fluoro-1H-indole-2-carbonyl)-N-[1-(hydroxymethyl)cyclopropyl]-N-methyl-1H,4H,5H,6H,7H-pyrazolo[4,3-c]pyridine-3-carboxamide]	< 1 µM	> 10 µM
CN(C(=O)c1n[nH]c2c1CN(C(=O)c1cc3c(F)c(F)ccc3[nH]1)CC2)C1(CO)CC1 [Example 240, 5-(4,5-difluoro-1H-indole-2-carbonyl)-N-[1-(hydroxymethyl)cyclopropyl]-N-methyl-1H,4H,5H,6H,7H-pyrazolo[4,3-c]pyridine-3-carboxamide]	< 1 µM	> 10 µM
CN(C(=O)c1n[nH]c2c1CN(C(=O)c1cc3c(Cl)cc(F)cc3[nH]1)CC2)C1(CO)CC1 [Example 241, 5-(4-chloro-6-fluoro-1H-indole-2-carbonyl)-N-[1-(hydroxymethyl)cyclopropyl]-N-methyl-1H,4H,5H,6H,7H-pyrazolo[4,3-c]pyridine-3-carboxamide]	< 1 µM	> 10 µM
CN(C(=O)c1n[nH]c2c1CN(C(=O)c1cc3cc(F)c(Cl)cc3[nH]1)CC2)C1(CO)CC1 [Example 242, 5-(6-chloro-5-fluoro-1H-indole-2-carbonyl)-N-[1-(hydroxymethyl)cyclopropyl]-N-methyl-1H,4H,5H,6H,7H-pyrazolo[4,3-c]pyridine-3-carboxamide]	< 1 µM	> 10 µM
Cc1cc(F)cc2[nH]c(C(=O)N3CCc4[nH]nc(C(=O)N(C)C5(CO)CC5)c4C3)cc12 [Example 243, 5-(6-fluoro-4-methyl-1H-indole-2-carbonyl)-N-[1-(hydroxymethyl)cyclopropyl]-N-methyl-1H,4H,5H,6H,7H-pyrazolo[4,3-c]pyridine-3-carboxamide]	< 1 µM	> 10 µM
O=C(c1cc2ccccc2[nH]1)N1CCc2n[nH]c(C(=O)N3CCN(Cc4ccccc4)C4(CC4)C3)c2C1 [Example 257, 2-(3-{4-benzyl-4,7-diazaspiro[2.5]octane-7-carbonyl}-2H,4H,5H,6H,7H-pyrazolo[4,3-c]pyridine-5-carbonyl)-1H-indole]	1 to 25 µM	> 10 µM
CN(C(=O)c1[nH]nc2c1CN(C(=O)c1cc3ccccc3[nH]1)CC2)C1(C(=O)OC(C)(C)C)CC1 [Example 258, tert-butyl 1-[N-methyl 5-(1H-indole-2-carbonyl)-2H,4H,5H,6H,7H-pyrazolo[4,3-c]pyridine-3-amido]cyclopropane-1-carboxylate]	1 to 25 µM	> 10 µM
N[C@@H]1CCN(C(=O)c2[nH]nc3c2CN(C(=O)c2cc4ccccc4[nH]2)CC3)C1 [Example 259, (3R)-1-[5-(1H-indole-2-carbonyl)-2H,4H,5H,6H,7H-pyrazolo[4,3-c]pyridine-3-carbonyl]pyrrolidin-3-amine]	1 to 25 µM	> 10 µM
CN(CCC(=O)O)C(=O)CCN(C)C(=O)c1[nH]nc2c1CN(C(=O)c1cc3ccccc3[nH]1)CC2 [Example 275, 3-(3-{1-[5-(1H-indole-2-carbonyl)-2H,4H,5H,6H,7H-pyrazolo[4,3-c]pyridin-3-yl]-N-methylformamido}-N-methylpropanamido)propanoic acid]	1 to 25 µM	> 10 µM
CO/N=C(/c1n[nH]c2c1CN(C(=O)c1cc3ccccc3[nH]1)CC2)C1CC1 [Example 288, (E)-{cyclopropyl[5-(1H-indole-2-carbonyl)-1H,4H,5H,6H,7H-pyrazolo[4,3-c]pyridin-3-yl]methylidene}(methoxy)amine]	1 to 25 µM	> 10 µM
CO/N=C(\c1n[nH]c2c1CN(C(=O)c1cc3ccccc3[nH]1)CC2)C1CC1 [Example 289, (Z)-{cyclopropyl[5-(1H-indole-2-carbonyl)-1H,4H,5H,6H,7H-pyrazolo[4,3-c]pyridin-3-yl]methylidene}(methoxy)amine]	1 to 25 µM	> 10 µM
O=C(c1cc2ccccc2[nH]1)N1CCc2[nH]nc(C(=O)N(C3CCOCC3)C3CC3)c2C1 [Example 293, N-cyclopropyl-5-(1H-indole-2-carbonyl)-N-(oxan-4-yl)-1H,4H,5H,6H,7H-pyrazolo[4,3-c]pyridine-3-carboxamide]	< 100 µM	> 10 µM
CN(C(=O)c1[nH]nc2c1CN(C(=O)c1cc3cccc(F)c3[nH]1)CC2)C1CC1 [Example 319, N-cyclopropyl-5-(7-fluoro-1H-indole-2-carbonyl)-N-methyl-2H,4H,5H,6H,7H-pyrazolo[4,3-c]pyridine-3-carboxamide]	< 1 µM	> 10 µM
CN(C(=O)c1[nH]nc2c1CN(C(=O)c1cc3ccc(F)cc3[nH]1)CC2)C1CC1 [Example 320, N-cyclopropyl-5-(6-fluoro-1H-indole-2-carbonyl)-N-methyl-2H,4H,5H,6H,7H-pyrazolo[4,3-c]pyridine-3-carboxamide]	< 1 µM	> 10 µM
CN(C(=O)c1[nH]nc2c1CN(C(=O)c1cc3cc(F)ccc3[nH]1)CC2)C1CC1 [Example 321, N-cyclopropyl-5-(5-fluoro-1H-indole-2-carbonyl)-N-methyl-2H,4H,5H,6H,7H-pyrazolo[4,3-c]pyridine-3-carboxamide]	< 1 µM	> 10 µM
O=C(c1cc2c(Cl)cc(F)cc2[nH]1)N1CCc2[nH]nc(C34CC(C3)C4)c2C1 [Example 335, 2-(3-{bicyclo[1.1.1]pentan-1-yl}-1H,4H,5H,6H,7H-pyrazolo[4,3-c]pyridine-5-carbonyl)-4-chloro-6-fluoro-1H-indole]	< 1 µM	> 10 µM
O=C(c1cc2c(Cl)cccc2[nH]1)N1CCc2n[nH]c(C3CCC3)c2C1 [Example 387, 4-chloro-2-{3-cyclobutyl-2H,4H,5H,6H,7H-pyrazolo[4,3-c]pyridine-5-carbonyl}-1H-indole]	< 1 µM	> 10 µM
O=C(c1cc2c(F)cc(F)cc2[nH]1)N1CCc2n[nH]c(C3CCC3)c2C1 [Example 388, 2-{3-cyclobutyl-2H,4H,5H,6H,7H-pyrazolo[4,3-c]pyridine-5-carbonyl}-4,6-difluoro-1H-indole]	< 1 µM	> 10 µM
O=C(c1cc2ccc(F)c(F)c2[nH]1)N1CCc2n[nH]c(C3CCC3)c2C1 [Example 389, 2-{3-cyclobutyl-2H,4H,5H,6H,7H-pyrazolo[4,3-c]pyridine-5-carbonyl}-6,7-difluoro-1H-indole]	< 1 µM	> 10 µM
O=C(c1cc2cc(F)c(F)cc2[nH]1)N1CCc2n[nH]c(C3CCC3)c2C1 [Example 390, 2-{3-cyclobutyl-2H,4H,5H,6H,7H-pyrazolo[4,3-c]pyridine-5-carbonyl}-5,6-difluoro-1H-indole]	< 1 µM	> 10 µM
O=C(c1cc2c(F)c(F)ccc2[nH]1)N1CCc2n[nH]c(C3CCC3)c2C1 [Example 391, 2-{3-cyclobutyl-2H,4H,5H,6H,7H-pyrazolo[4,3-c]pyridine-5-carbonyl}-4,5-difluoro-1H-indole]	< 1 µM	> 10 µM
O=C(c1cc2cccc(F)c2[nH]1)N1CCc2n[nH]c(C3CCC3)c2C1 [Example 392, 2-{3-cyclobutyl-2H,4H,5H,6H,7H-pyrazolo[4,3-c]pyridine-5-carbonyl}-7-fluoro-1H-indole]	< 1 µM	> 10 µM
